Source: patent US20240417370A1, “LIPIDS FOR USE IN LIPID NANOPARTICLE FORMULATIONS” (Acuitas Therapeutics, Inc., priority 2023, published 2024)

Columns and labels:
[1] = test system: luciferase expression in the liver; experiment: Luciferase mRNA in vivo evaluation using lipid nanoparticle compositions; set-up: species or system mice; details: LNP-formulated lipid, tail vein injection, ng luciferase/g liver 4 hours after administration; for Liver Luc @ 0.3 mg/kg: 0.3 mg mRNA/kg; for Liver Luc @ 1.0 mg/kg: 1.0 mg mRNA/kg
Description: (§1) A lipid of structure (I), DSPC, cholesterol and PEG-lipid are solubilized in ethanol at a molar ratio of 50:10:38.5:1.5 or 47.5:10:40.7:1.8. Lipid nanoparticles (LNP) are prepared at a total lipid to mRNA weight ratio of approximately 10:1 to 40:1. Briefly, the mRNA is diluted to 0.2 mg/mL in 10 to 50 mM citrate buffer, pH 4 to 6 or 10 to 25 mM acetate buffer, pH 4. Syringe pumps are used to mix the ethanolic lipid solution with the mRNA aqueous solution at a ratio of about 1:5 to 1:3 (vol/vol) with total flow rates above 15 mL/min. The ethanol is then removed, and the external buffer replaced with PBS by dialysis. Finally, the lipid nanoparticles are filtered through a 0.2 µm pore sterile filter.
Studies are performed in 6-8-week-old female C57BL/6 mice (Charles River) 8-10-week-old CD-1 mice (Charles River or Inotiv) according to guidelines established by an institutional animal care committee (ACC) and the Canadian Council on Animal Care (CCAC). Varying doses of mRNA-lipid nanoparticle are systemically administered by tail vein injection and animals euthanized at a specific time point (e.g., 4 hours) post-administration. Liver and spleen are collected in pre-weighed tubes, weights determined, immediately snap frozen in liquid nitrogen, and stored at −80° C. until processing for analysis.
For liver, approximately 50 mg is dissected for analyses in a 2 mL FastPrep tubes (MP Biomedicals, Solon OH). ¼″ ceramic sphere (MP Biomedicals) is added to each tube and 500-750 μL of Glo Lysis Buffer—GLB (Promega, Madison WI) equilibrated to room temperature is added to liver tissue. Liver tissues are homogenized with the FastPrep24 instrument (MP Biomedicals) at 2×6.0 m/s for 15 seconds. Homogenate is incubated at room temperature for 5 minutes prior to a 1:4 to 1:6 dilution in GLB and assessed using SteadyGlo Luciferase assay system (Promega). Specifically, 50 μL of diluted tissue homogenate is reacted with 50 μL of SteadyGlo substrate, shaken for 10 seconds followed by 5-minute incubation and then luminescence was quantitated using a FilterMax F5 Microplate Reader (Molecular Devices, USA). The amount of protein assayed is determined by using the BCA protein assay kit (Pierce, Rockford, IL). Relative luminescence units (RLU) were then normalized to total μg protein or weight (g) of tissue assayed. To convert RLU to ng luciferase a standard curve is generated with QuantiLum Recombinant Luciferase (Promega).
The FLuc mRNA (L-7202) from Trilink Biotechnologies will express a luciferase protein, originally isolated from the firefly, Photinus pyralis. Flue is commonly used in mammalian cell culture to measure both gene expression and cell viability. It emits bioluminescence in the presence of the substrate, luciferin. This capped and polyadenylated mRNA is modified with 5-methoxyuridine and optimized for mammalian systems.
(§2) Representative compounds of the disclosure shown in Table 2 were formulated using the following molar ratio: 50% cationic lipid/10% distearoylphosphatidylcholine (DSPC)/38.5% Cholesterol/1.5% PEG lipid 2-[2-(ω-methoxy(polyethyleneglycol2000)ethoxy]-N,N-ditetradecylacetamide) or 47.5% cationic lipid/10% DSPC/40.7% Cholesterol/1.8% PEG lipid. Relative activity was determined by measuring luciferase expression in the liver 4 hours following administration via tail vein injection as described in Example 1 or by measuring the amount of human IgG in mouse serum as described in example 2. The activity was compared at a dose of 1.0 or 0.5 or 0.3 mg mRNA/kg and expressed as ng luciferase/g liver measured 4 hours after administration, as described in Example 1 or as μg IgG/mL serum measured 24 hours after administration, as described in Example 2. Compound numbers in Table 2 refer to the compound numbers of Table 1.

human IgG in mouse serum = experiment: Immunoglobulin G (IgG) mRNA in vivo evaluation using lipid nanoparticle compositions; set-up: species or system mice; details: LNP-formulated lipid, tail vein injection, μg IgG/mL serum 24 hours after administration; for Serum IgG @ 0.3 mg/kg: 0.3 mg mRNA/kg; for Serum IgG @ 1.0 mg/kg: 1.0 mg mRNA/kg
Description: as §1, with “4 to 6.” for “4.”
Studies are performed in 6-8-week-old CD-1/ICR mice (Envigo, Charles River, or Inotiv) according to guidelines established by an institutional animal care committee (ACC) and the Canadian Council on Animal Care (CCAC). Varying doses of mRNA-lipid nanoparticle are systemically administered by tail vein injection and animals euthanized at a specific time point (e.g., 24 hours) post-administration. The whole blood is collected, and the serum subsequentially separated by centrifuging the tubes of the whole blood at 2000×g for 10 minutes at 4° C. and stored at −80° C. until use for analysis.
For immunoglobulin G (IgG) ELISA (Life Diagnostics Human IgG ELISA kit), the serum samples are diluted at 100 to 20,000 folds with 1× diluent solution. 100 μL of diluted serum is dispensed into anti-human IgG coated 96-well plate in duplicate alongside human IgG standards and incubated in a plate shaker at 150 rpm at 25° C. for 45 minutes. The wells are washed 5 times with 1× wash solution using a plate washer (400 μL/well). 100 μL of HRP conjugate is added into each well and incubated in a plate shaker at the same condition above. The wells are washed 5 times again with 1× wash solution using a plate washer (400 μL/well). 100 μL of TMB reagent is added into each well and incubated in a plate shaker at the same condition above. The reaction is stopped by adding 100 μL of Stop solution to each well. The absorbance is read at 450 nm (A450) with a microplate reader. The amount of human IgG in mouse serum is determined by plotting A450 values for the assay standard against human IgG concentration.
as §2

| SMILES | Liver Luc @ 0.3 mg/kg [1] [ng/g] | Liver Luc @ 1.0 mg/kg [1] [ng/g] | Serum IgG @ 0.3 mg/kg (human IgG in mouse serum) [µg/mL] | Serum IgG @ 1.0 mg/kg (human IgG in mouse serum) [µg/mL] |
| --- | --- | --- | --- | --- |
| CCCCCCCCCCN(CCCCCCCCCC)C(=O)CCCCCCCN(CCCCCCCC(=O)N(CCCCCCCCCC)CCCCCCCCCC)C[C@H]1C[C@H](O)C1 [(1R, 3R) I-2, 8,8′-((((1R,3R)-3-hydroxycyclobutyl)methyl)azanediyl)bis(N,N-didecyloctanamide)] | 12651 ± 3017 | 82113 ± 14450 | – | – |
| CCCCCCCCCCN(CCCCCCCCCC)C(=O)CCCCCCCN(CCCCCCCC(=O)N(CCCCCCCCCC)CCCCCCCCCC)CC[C@H]1C[C@@H](O)C1 [(1S, 3R) I-1, 8,8′-((2-((1S,3R)-3-hydroxycyclobutyl)ethyl)azanediyl)bis(N,N-didecyloctanamide)] | 18927 ± 2102 | 79233 ± 12026 | – | – |
| C=CCCCCCCCCN(CCCCCCCCC=C)C(=O)CCCCCCCN(CCCCCCCC(=O)N(CCCCCCCCCC)CCCCCCCCCC)[C@H]1CC[C@@H](O)CC1 [(1S, 4S) I-57, N,N-di(dec-9-en-1-yl)-8-((8-(didecylamino)-8-oxooctyl)((1s,4s)-4-hydroxycyclohexyl)amino)octanamide] | – | – | 84.4 ± 35.10 | – |
| CCCCCCCCCCN(CCCCCCCCCC)C(=O)CCCCCCCN(CCCCCCCC(=O)N(CCCCCCCCCC)CCCCCCCCCC)C[C@H]1C[C@@H](O)C1 [(1S, 3S) I-2, 8,8′-((((1S,3S)-3-hydroxycyclobutyl)methyl)azanediyl)bis(N,N-didecyloctanamide)] | 10872 ± 2411 | 91854 ± 15303 | – | – |
| CCCCCCCCCCN(CCCCCCCCCC)C(=O)CCCCCCCCCN(CCCCCCCCCC(=O)N(CCCCCCCCCC)CCCCCCCCCC)[C@H]1CC[C@@H](O)CC1 [(1S, 4S) I-60, 10,10′-(((1s,4s)-4-hydroxycyclohexyl)azanediyl)bis(N,N-didecyldecanamide)] | – | – | 15.65 ± 5.31 | – |
| CCCCCCCCCCN(CCCCCCCCN(CCCCCCCCN(CCCCCCCCCC)C(=O)CCCCCCCCC)C[C@H]1C[C@H](O)C1)C(=O)CCCCCCCCC [(1R, 3R) I-22, N,N′-(((((1R,3R)-3-hydroxycyclobutyl)methyl)azanediyl)bis(octane-8,1-diyl))bis(N-decyldecanamide)] | – | – | 19.88 ± 2.53 | – |
| CCCCCCCCCCN(CCCCCCCCCC)C(=O)CCCCCCCN(CCCCCCCC(=O)N(CCCCCCCCCC)CCCCCCCCCC)C1CCC(O)CC1 (stereo not shown) [Compound I-9, 8,8′-((4-hydroxycyclohexyl)azanediyl)bis(N,N-didecyloctanamide)] | – | – | 35.77 ± 4.50 | – |
| CCCCCCCCCCN(CCCCCCCCCC)C(=O)CCCCCCCN(CCCCCCCC(=O)N(CCCCCCCCCC)CCCCCCCCCC)[C@H]1C[C@@H](CO)C1 [(1S, 3S) I-24, 8,8′-(((1S,3S)-3-(hydroxymethyl)cyclobutyl)azanediyl)bis(N,N-didecyloctanamide)] | – | – | 20.09 ± 5.90 | 57.71 ± 10.58 |
| CCCCCCCCCCN(CCCCCCCCCC)C(=O)CCCCCCCN(CCCCCCCC(=O)N(CCCCCCCCCC)CCCCCCCCCC)[C@H]1C[C@H](O)C1 [(1R, 3R) I-5, 8,8′-(((1R,3R)-3-hydroxycyclobutyl)azanediyl)bis(N,N-didecyloctanamide)] | – | – | 44.52 ± 9.89 | 215.61 ± 28.80 |
| CCCCCCCCCCN(CCCCCCCCN(CCCCCCCCN(CCCCCCCCCC)C(=O)CCCCCCCCC)[C@H]1CC[C@@H](O)CC1)C(=O)CCCCCCCCC [(1S, 4S) I-63, N,N′-((((1s,4s)-4-hydroxycyclohexyl)azanediyl)bis(octane-8,1-diyl))bis(N-decyldecanamide)] | – | – | 39.32 ± 8.99 | – |
| CCCCCCCCCC(CCCCCCCCC)NC(=O)CCCCCCCN(CCCCCCCC(=O)NC(CCCCCCCCC)CCCCCCCCC)[C@H]1CC[C@@H](O)CC1 [(1S, 4S) I-50, 8,8′-(((1s,4s)-4-hydroxycyclohexyl)azanediyl)bis(N-(nonadecan-10-yl)octanamide)] | – | – | 29.82 ± 7.79 | – |
